Source: ChEMBL document CHEMBL1141891, “Crystallographic determination of stereochemistry of biologically active 2'',3''-dibromo-7-epi-10-deacetylcephalomannine” (Bioorg Med Chem Lett, 2005)
Converted amounts (≈) assume the structure as drawn.

Key:
Type in all cases: functional, cell-based
MCF7 = assay: Inhibitory concentration required to inhibit MCF-7 Cell line growth on continuous exposure time of 72 h; conditions: Homo sapiens, MCF7, 72 h
A2780 = assay: Inhibitory concentration against A2780 proliferation after 72 hr; conditions: Homo sapiens, A2780, 72 h
A549 = assay: Inhibitory concentration required to inhibit A549 Cell line growth on continuous exposure time of 72 h; conditions: Homo sapiens, A549, 72 h

IC50 (MCF7) | IC50 (A2780) | IC50 (A549) | Compound
4.75 ng/mL (≈ 5 nM) | 2.13 ng/mL (≈ 2.24 nM) | 13 ng/mL (≈ 13.7 nM) | CC(=O)O[C@@]12CO[C@@H]1C[C@@H](O)[C@@]1(C)C(=O)[C@H](O)C3=C(C)[C@@H](OC(=O)[C@H](O)[C@@H](NC(=O)[C@@](C)(Br)[C@H](C)Br)c4ccccc4)C[C@@](O)([C@@H](OC(=O)c4ccccc4)C12)C3(C)C (some centres not stated)
7.1 ng/mL (≈ 7.48 nM) | 4.84 ng/mL (≈ 5.1 nM) | 26.9 ng/mL (≈ 28.3 nM) | CC(=O)O[C@@]12CO[C@@H]1C[C@@H](O)[C@@]1(C)C(=O)[C@H](O)C3=C(C)[C@@H](OC(=O)[C@H](O)[C@@H](NC(=O)[C@](C)(Br)[C@@H](C)Br)c4ccccc4)C[C@@](O)([C@@H](OC(=O)c4ccccc4)C12)C3(C)C (some centres not stated)
– | 6.76 ng/mL (≈ 7.92 nM) | – | CC(=O)O[C@H]1C(=O)[C@@]2(C)[C@H]([C@H](OC(=O)c3ccccc3)[C@]3(O)C[C@H](OC(=O)[C@H](O)[C@@H](NC(=O)c4ccccc4)c4ccccc4)C(C)=C1C3(C)C)[C@]1(OC(C)=O)CO[C@@H]1C[C@@H]2O [PACLITAXEL]
